Converted amounts (≈) assume the structure as drawn. Read-outs that look alike come from different tables or passages of the source.
What was measured:
[1] = acute toxicity, LD 50, CD 1 mice; type: in vivo; details: mouse, in vivo
From the text: The acute toxicities of the compounds according to the invention have been determined on CD 1 (Charles RIVER) mice by intravenous and oral methods. The LD 50 of each compound has been calculated by the cumulative method of J. J. Reed and H. Muench, (Amer. J. Hyg., 1938, 27, 493).

dogs = experiment: anti-emetic activity, apomorphine vomiting test on dogs; type: in vivo; details: Canis lupus familiaris, po, dogs, orally, apomorphine; read-out: Anti-emetic activity on dogs ED 50
From the text: The anti-emetic properties of the compounds according to the invention have been shown by oral administration of apomorphine to dogs in the vomiting test according to G. Chen and C. J. Ensor, Pharmacol. exp. Therap., 98, 24 (1950).

rat = experiment: catalepsy test, rat; type: in vivo, CD rat (Charles RIVER); details: po, orally, read-out: Catalepsy AD 50
From the text: (§1) The neuroloptic effects of the compounds according to the invention have been shown with respect to the CD rat (Charles RIVER) taken orally in the catalepsy test according to S. COURVOISIER, R. DUCROT, and L. JULOU, in Psychotropic Drugs, S. GARATTINI and V. GHETTI, Edit.--ELSEVIER Publ. Co., AMSTERDAM, LONDON, NEW YORK, PRINCETON, 1957 P. 373 and also in the traction test of CD1 (Charles RIVER) mice taken orally S. COURVOISIER, Quart. Rev. Psychiat. Neurol. 17, 25 (1956), on the one hand and also in the spontaneous motility test.

mouse [2] = experiment: traction test, mouse; type: in vivo, CD1 (Charles RIVER) mice; details: po, orally, read-out: Traction AD 50
From the text: as §1

mouse [3] = experiment: spontaneous motility test (hypomotility), mouse; type: in vivo, mice; details: po, 1 h, orally, 60 minutes before measuring, 50% reduction of mean motility, first 5 minutes, read-out: Hypomotility ED 50
From the text: as §1
This latter technique comprises keeping an account of the displacements of the mice by means of a floor of metal strips which enables the spontaneous activity of the animals to be recorded during the first 5 minutes subsequent to their being introduced into the measuring chamber. The products are dispensed 60 minutes before measuring is effected and 10 mice are used per dose. The results are expressed in ED 50 which represents the dose of substance capable of reducing the mean motility of the treated animals by 50% relative to that of the sample group which has only received the dispensing carrier.

mice = experiment: analgesic activity, painful abdominal torsions test with phenylbenzoquinone; type: in vivo, CD 1 (Charles RIVER) mice; details: Mus musculus, po; mice, orally; read-out: Phenylbenzoquinone test on mice AD 50
From the text: The analgesic properties of the products according to the invention have been shown with CD 1 (Charles RIVER) mice in the painful abdominal torsions test with phenylbenzoquinone according to the technique of E. Siegmund, R. Cadmus and Go.Lu--Proc. Soc. Exp. Biol. Med., 95, 729, (1957).

[4] = test system: serotonine plantar oedema; experiment: anti-serotonine activity, serotonine plantar oedema; type: in vivo, CD (Charles RIVER) rats; details: po; rat, orally; read-out: Serotonine plantar oedema AD 50
From the text: (§2) The anti-serotonine activities of the compounds according to the invention have been shown by oral administration to the CD (Charles RIVER) rats using the technique of the serotonine plantar oedema (W. Theobald and R. Domenjoz--Arzneimittel Forsch, 8, 18, 1958 and with the CD 1 (Charles RIVER) mice using the technique known as "head twitch" according to S. J. Corne, R. W. Pickering and B. T. Warner, Brit. J. Pharmacol., 20, 106, (1963). The anti-serotonine activity has also been determined on the one hand on the tricoloured guinea-pig, given intravenously, according to a method derived from H. Konzet and R. Rossler, Arch. exp. Pathol, Pharmakol., 195, 71, (1940) and on the other hand in vitro with respect to the serotonine spasm of the isolated uterus of the rat according to the technique of A. Fanchamps, W. Doepfener, H. Weidman and A. Cerletti, Schw. Med. Worsch, 90, 1940, (1960).

head twitch = experiment: anti-serotonine activity, head twitch; type: in vivo, CD 1 (Charles RIVER) mice; details: Mus musculus, po; mice, orally; read-out: "Head-twitch" AD 50
From the text: as §2

serotonine bronchospasms = experiment: anti-serotonine activity, serotonine bronchospasms; type: in vivo, tricoloured guinea-pig; details: Cavia porcellus, iv; guinea pig, intravenously; read-out: Serotonine bronchospasms ED 50
From the text: as §2

serotonine = experiment: antiserotonine properties on the whole (all four tests); set-up: species or system rat, mice, guinea pig; details: comparison within the series
From the text: as §2

[5] = test system: isolated duodenum of the rabbit (acetylcholine); experiment: spasmolytic effect on isolated duodenum, acetylcholine spasm; type: cell-based; details: Oryctolagus cuniculus, read-out: Spasmolytic effects EC 50 with respect to acetylcholine
From the text: (§3) Ges. Physiol., 102, 123, (1904) with respect to the spasms of the isolated duodenum of rabbits caused either by acetylchlorine for the spasmolytic nemotropes or by barium chloride for the spasmolytic musculotropes.

[6] = test system: isolated duodenum of the rabbit (barium chloride); experiment: spasmolytic effect on isolated duodenum, barium chloride spasm; type: cell-based; details: Oryctolagus cuniculus, read-out: Spasmolytic effects EC 50 with respect to barium chloride
From the text: as §3

[7] = test system: isolated duodenum of the rabbit; experiment: spasmolytic activity overall; type: cell-based; details: isolated duodenum of rabbits
From the text: as §3

solubility = type: physicochemical

CCCCCNc1nc(Cl)c(SC)c(N2CCN(C)CC2)n1 [Example 24, 2-n.pentylamino-4-N-methylpiperazino-6-chloro-5-methylthiopyrimidine]
LD50 ([1]; intravenous, read-out: Acute toxicity for mice LD 50, intravenous): 87 mg/kg
LD50 ([1]; oral, read-out: Acute toxicity for mice LD 50, orally): ~600 mg/kg
ED50 (dogs): 1.9 mg/kg
ED50 (rat): 400 mg/kg
ED50 (mouse [2]): 210 mg/kg
ED50 (mouse [3]): 80 mg/kg
ED50 (mice): 100 mg/kg
ED50 [4]: > 300 mg/kg
ED50 (head twitch): 25 mg/kg
ED50 (serotonine bronchospasms): 0.05 mg/kg
antiserotonine properties ranking (serotonine): the greatest antiserotonine properties on the whole
EC50 [5]: 0.5 µg/mL (≈ 1.45 µM)
EC50 [6]: 0.12 µg/mL (≈ 0.349 µM)
spasmolytic activity type / ranking [7]: most effective
solubility in dilute hydrochloric acid (solubility; dilute hydrochloric acid): soluble
solubility in ethanol (alcohol) (solubility; ethanol / alcohol): very soluble
solubility in water (solubility; water): insoluble
